Reference: patent publication US4112101A, “N-(Pyridyl)-1H-(or 2H) tetrazole-5-carboxamide derivatives for the prevention of immediate type hypersensitivity reactions” (American Home Products Corporation, priority 1977, dated 1978)
Where a name gives a salt, the structure may show the parent alone.

Tested on: passive cutaneous anaphylaxis using rat homocytotropic antibody
Assay: rat passive cutaneous anaphylaxis test (rat PCA test)
Assay type: in vivo
Method: The technique employed to establish the anti-allergic activity of the 1H-tetrazole-5-carboxamide derivatives is reported in Immunology, vol. 16, pp. 749-760 (1969) and involves four male Charles River rats (200-250 grams body weight) per group to provide a control, a host for administration of a standard anti-allergic compound (disodium cromoglycate) and animals for the test compound. The rats were injected intracutaneously on their shaved backs with sera from rats immunized with egg albumin and pertussis vaccine. Twenty-four hours after the initial injections, the test compound is administered intraperitoneally or orally at a dosage level of 200 milligrams per kilogram host body weight or less. Five minutes later one milliliter of a 0.5 percent solution of Evans blue dye and 8 milligrams of egg albumin is injected intravenously. After 40 minutes, the animal is sacrificed and the bleb size on its back is measured. The mean bleb size for the animals administered the test compound is calculated and the percent inhibition is determined by comparison with the control animal.
In other words, the compounds of this invention block the release of mediators commonly resulting from the antigen-antibody reaction as exemplified in a passive cutaneous anaphylaxis test (PCA) using rat homocytotropic antibody -- a known correlate of human reaginic antibody.

O=C(Nc1ccccn1)c1nn[nH]n1 [Example 1, N-(2-Pyridinyl)-1H-tetrazole-5-carboxamide, sodium salt]
% inhibition (intraperitoneal (i.p.), dose 1.0 mg/kg): 82.6% | % inhibition (intraperitoneal (i.p.), dose 10 mg/kg): 99.0% | % inhibition (intraperitoneal (i.p.), dose 100 mg/kg): 72.5% | % inhibition (intraperitoneal (i.p.), dose .01 mg/kg): 24.8% | % inhibition (intraperitoneal (i.p.), dose .1 mg/kg): 41.9% | % inhibition (oral (p.o.), dose 1 mg/kg): 62.6% | % inhibition (oral (p.o.), dose 10 mg/kg): 94.8% | % inhibition (oral (p.o.), dose 100 mg/kg): 100.0% | % inhibition (oral (p.o.), dose .01 mg/kg): 40.4% | % inhibition (oral (p.o.), dose .1 mg/kg): 25.1%
